# Patent publication US8221745B2 (Velico Medical, Inc., priority 2004, dated 2012)
# Tests used:
# [1] = tested on: differentiated monocytic cell line THP-1; test: In vitro phagocytic assay: ingestion of chilled or room temperature human platelets by THP-1 cells; type: cell-based; settings: for inhibitory effect on chilled platelet phagocytosis (in words): phagocytes incubated in monosaccharide solutions at various concentrations; for inhibitory effect on RT platelet phagocytosis (in words): room temperature platelets
# Description: CR3 expression was monitored by flow cytometry using a PE-conjugated anti-human CD11b/Mac-1 mAb. Undifferentiated or differentiated THP-1 cells (2×10^6/ml) were plated onto 24-well plates and allowed to adhere for 45 minutes at 37° C. The adherent undifferentiated or differentiated macrophages were activated by the addition of 15 ng/ml PMA for 15 min. CM-range-labeled, chilled or room temperature platelets (10^7/well), previously subjected to different treatments were added to the undifferentiated or differentiated phagocytes in Ca^2+- and Mg^2+-containing HBSS and incubated for 30 min at 37° C. Following the incubation period, the phagocyte monolayer was washed with HBSS for 3 times, and adherent platelets were removed by treatment with 0.05% trypsin/0.53 mM EDTA in HBSS at 37° C. for 5 min followed by 5 mM EDTA at 4° C. to detach the macrophages for flow cytometric analysis of adhesion or ingestion of platelets (Brown et al., 2000). […] CM-Orange-labeled platelets incubated with macrophages were resolved from the phagocytes according to their forward and side scatter properties. The macrophages were gated, 10,000 events acquired for each sample, and data analyzed with CELLQuest software (Becton Dickenson).
# To analyze the effects of monosaccharides on platelet phagocytosis, phagocytes (differentiated monocytic cell line THP-1) were incubated in monosaccharide solutions at various concentrations, and the chilled or room temperature platelets were added. Values in the Figures are means±SD of 3-5 experiments comparing percentages of orange-positive monocytes containing ingested platelets incubated with RT or chilled platelets).
# human platelets [2] = test: Immunolabeling and flow cytometry of chilled versus room temperature platelets (human); type: cell-based; settings: mean±SD, n=3−4
# Description: (§1) Washed murine or human platelets (2×10^6) were analyzed for surface expression of CD62P, CD61, or surface bound IgM and IgG after chilling or room temperature storage by staining with fluorophore-conjugated Abs (5 μg/ml) for 10 min at 37° C. Phosphatidylserine exposure by chilled or room temperature platelets was determined by resuspending 5 μl of platelets in 400 μl of HBSS containing 10 mM Ca^2+ with 10 μg/ml of FITC-conjugated annexin-V. As a positive control for PS exposure, platelet suspensions were stimulated with 1 μM A23187. Fibrinogen binding was determined by the addition of Oregon Green-fibrinogen for 20 min at room temperature. All platelet samples were analyzed immediately by flow cytometry. Platelets were gated by forward and side scatter characteristics.
# (§2) The binding of fluorescently labeled antibodies or ligands against various receptors on chilled-rewarmed or room temperature human and murine platelets was measured by flow cytometry. The data are expressed as the ratio between the mean fluorophore bound to the surface of chilled versus room temperature platelets (mean±SD, n=3−4).
# Murine platelets = test: Immunolabeling and flow cytometry of chilled versus room temperature platelets (murine); type: cell-based; settings: mean±SD, n=3−4
# Description: as §1, §2
# [3] = tested on: platelet membrane glycoproteins; test: Incorporation of 14C-labeled sugars into endogenous platelet glycoproteins (SDS-PAGE, autoradiography); type: biochemical, human; settings: intact non-lysed platelets
# Description: Transfer of sialic acids to endogenous glycoproteins by platelet sialyltransferase activity was tested in two ways. […] Intact platelets suspended in buffer (140 mM NaCl, 3 mM KCl, 0.5 mM MgCl2, 5 mM NaHCO3, 10 mM Hepes, pH 7.4) were used to assess the capacity of surface exposed sialyltransferase activity to transfer to platelet membrane glycoproteins. […] Thus, it was possible to use three different glycan modification strategies: addition of 1) UDP-[^14C]-galactose, 2) UDP-[^14C]-galactose and CMP-[^14C]-sialic acid, and 3) CMP-[^14C]-sialic acid alone. The incorporation of radioactive sugar nucleotides were monitored by SDS-PAGE chromatography followed by autoradiography.
# The incorporation of radioactive carbohydrate sialic acid in endogenous platelet acceptor proteins was evaluated by incubating either detergent lysed platelets or non-lysed platelets with CMP-[^14C]-sialic. The incorporation ^14C-sialic acid was monitored by SDS-PAGE chromatography of the glycosylation mixture followed by autoradiography. Briefly, human apheresis platelets were washed and resuspended in resuspension buffer (40 mM NaCl, 3 mM KCl, 0.5 mM MgCl2, 5 mM NaHCO3, 10 mM Hepes, pH 7.4) and split in two fractions. One fraction was incubated with addition of CMP-[^14C]-sialic acid at 37° C. for 60 minutes. […]
# human platelets [4] = test: RCA I lectin binding to platelets by flow cytometry; type: cell-based; settings: chilled or room temperature human platelets; control nucleotides
# chilled human platelets = test: FITC-WGA / S-WGA lectin binding to platelets by flow cytometry; type: cell-based; settings: chilled or room temperature human platelets; control nucleotides
# Description: We then investigated whether wheat germ agglutinin (WGA), a lectin with specificity towards the terminal sugar (GlcNAc), binds more effectively to chilled platelets than to room temperature platelets. Washed, chilled or room temperature platelets were incubated with 2 μg/ml of FITC coupled WGA or FITC coupled succinyl-WGA for 30 min at room temperature and analyzed by flow cytometry.
# To analyze whether removal of GlcNAc residues reduces the binding of WGA to the platelet surface, chilled and room temperature washed human platelets were treated with 100 U/ml β-Hex for 30 min at 37° C.
# [5] = mice lacking 2,3Sialyltransferase IV; cited from earlier work
compound,measurement,setting,value
CO[C@H]1O[C@H](CO)[C@@H](O)[C@H](O)[C@@H]1O [Methyl-α-D-mannopyranoside],inhibitory effect on chilled platelet phagocytosis (in words),[1]; chilled platelets,no inhibitory effect
same,inhibitory effect on RT platelet phagocytosis (in words),[1],no inhibitory effect
fibrinogen,Binding ratio 4° C.:22° C.,human platelets [2],1.05 ± 0.10
same,Binding ratio 4° C.:22° C.,Murine platelets,1.06 ± 0.06
COC1OC(CO)C(O)C(O)C1O [Methyl-β-D-gludopyranoside],inhibitory effect on chilled platelet phagocytosis (in words),[1]; chilled platelets,inhibited phagocytosis in a dose-dependent manner
cytidine monophospho-N-acetylneuraminic acid [CMP-sialic acid],incorporation of radioactive sugar into platelet membrane glycoproteins,[3],high level of incorporation
O=c1ccn([C@@H]2O[C@H](COP(=O)(O)OP(=O)(O)O)[C@@H](O)[C@H]2O)c(=O)[nH]1 [UDP],effect on RCA I binding,human platelets [4],no effect
same,effect on S-WGA binding,chilled human platelets,no effect
"CC(=O)N[C@H]1C(O)O[C@H](CO)[C@@H](O)[C@@H]1O (stereo partly drawn) [GlcNac, N-acetyl-D-glucosamine]",inhibition of chilled platelet phagocytosis (in words),[1]; 25 to 200 mM,significantly inhibited
CC(=O)N[C@@H]1[C@@H](O)[C@H](O)[C@@H](CO)O[C@H]1O [β-GlcNac],inhibition of the phagocytosis of chilled platelets,[1]; 10 μM,80%
same,inhibitory effect on chilled platelet phagocytosis (in words),[1]; chilled platelets,strongly inhibited
asialofetuin,platelet count,[5],corrects the platelet count
CO[C@@H]1O[C@H](CO)[C@@H](O)[C@H](O)[C@@H]1O [Methyl-β-D-mannopyranoside],inhibitory effect on chilled platelet phagocytosis (in words),[1]; chilled platelets,no inhibitory effect
same,inhibitory effect on RT platelet phagocytosis (in words),[1],no inhibitory effect
O=C[C@H](O)[C@@H](O)[C@@H](O)[C@H](O)CO [D-(+)-galactose],% inhibition phagocytosis,"[1]; chilled platelets, monosaccharide 100 mM",did not significantly inhibit
O=C[C@@H](O)[C@@H](O)[C@H](O)[C@H](O)CO [D-(+)-mannose],inhibitory effect on chilled platelet phagocytosis (in words),[1]; chilled platelets,no inhibitory effect
same,inhibitory effect on RT platelet phagocytosis (in words),[1],no inhibitory effect
CO[C@H]1O[C@H](CO)[C@@H](O)[C@H](O)[C@H]1O [Methyl-α-D-glucopyranoside],inhibitory effect on chilled platelet phagocytosis (in words),[1]; chilled platelets,did not have an inhibitory effect
"annexin V: FITC-conjugated annexin-V, ligand for phosphatidylserine exposure",Binding ratio 4° C.:22° C.,human platelets [2],0.95 ± 0.09
same,Binding ratio 4° C.:22° C.,Murine platelets,1.04 ± 0.02
